From PMC8465290, “Zoledronic Acid as a Novel Dual Blocker of KIR6.1/2-SUR2 Subunits of ATP-Sensitive K^+ Channels: Role in the Adverse Drug Reactions” (Pharmaceutics, 2021) come the findings set out here.

Data set [1] is described as follows: Pharmacovigilance analysis of A.D.R. in EudraVigilance database. More on the design: species or system human. An excerpt:
All coding preferred terms per System Organ Class (S.O.C.) were screened in the EudraVigilance database (http://www.adrreports.eu/ accessed on 1 May 2021), and those potentially associated with KATP channel blocking actions were reported and subject to analysis.
The data were extracted from EudraVigilance, collected, and analyzed on Microsoft 365 Excel software package (Microsoft 10.00). The not specified category was not included in the calculation. The duplication of a specific report per S.O.C. was evaluated manually and excluded from the analysis.
The Proportional Reporting Ratio (P.R.R.) was calculated using the following equation: a/(a+c)/b/(b + d) where a is the reaction of interest to a given drug of interest, b is the reaction of interest for all other drugs in the class, c are all other reactions to a given drug of interest, and d are all other reactions to all other drugs in the class. Signal definition: P.R.R. ≥ 2, a minimum of three ratios/cases for the reaction of interest, X^2 ≥ 4. No signal is identified if P.R.R. is = 1 [47].

Data set [2] deals with KATP channels of femora primary bone cells. Kind of data set: KATP currents in cell-attached patches of femora (long bone) primary bone cells. As to conditions: for inhibition of KATP currents in C-A patches (in words): nanomolar concentrations, Figure 1C. In kind it is cell-based, mice. How it is done:
(§1) The culture of primary bone cells from adult mice was obtained from long bones (tibia and femur) and calvaria, as previously described. Bones were collected, cleaned, and flushed for removing the internal bone marrow cells. Small bone pieces of around 1 mm^3 were treated with trypsin-EDTA 0.25% (w/v) for 1 h and with 0.2% collagenase solution for an additional hour in a shaking water bath to remove all remaining soft tissue and adherent cells. Clean bone pieces have been cultured in basal medium enriched with 50 µg/mL of ascorbic acid. Osteoblasts from femora (Figure S1A, Supplementary Material) and calvaria chips (Figure S1B) were positive to Alizarin red staining (Figure S1C). The marker of osteoblasts was positive, as tested by the PCR expression analysis on cell pellets (Figure S1D).
(§2) The solutions for whole-cell and cell attached patches were as follows. The pipette solution contained 132 mM KCl, 1 mM ethylene glycol-bis(β-aminoethylether)-N,N,N′,N′-tetraaceticacid (EGTA), 10 mM NaCl, 2 mM MgCl2, 10 mM HEPES, 1 mM Na2ATP, and 0.3 mM Na2GDP (pH = 7.2). The bath solution contained 142 mM NaCl, 2.8 mM KCl, 1 mM CaCl2, 1 mM MgCl2, 11 mM glucose, and 10 mM HEPES (pH = 7.4).
(§3) The whole-cell and cell-attached patch-clamp experiments were performed in asymmetrical K^+ ion concentration in physiological conditions using pipettes with the resistance of 3–5 MΩ.
Drug actions on the channel currents recorded during instantaneous I/V relationships were investigated by applying a depolarization protocol, in response to voltage pulses from −180 mV to +100 mV (Vm) in 20 mV steps. Currents were expressed as densities (pA/pF) to control for cell size/capacitance differences. All experiments were performed at room temperature (20–22 °C) and sampled at 2 kHz (filter = 1 kHz) using an Axopatch-1D amplifier equipped with a CV-4 headstage (Axon Instruments; Foster City, CA, USA). Drug solutions were applied using a fast perfusion system during the continuous monitoring of the seal resistance at 18–22 °C room temperature in excised patches. In whole-cell and cell-attached patch-clamp experiments, before recording, the cells were equilibrated for 10 s with the solution. Data acquisition and analysis were performed using pCLAMP 10 software suite (Axon Instruments; Foster City, CA, USA), as previously described. Seal resistance was continuously monitored during the experiment.
The percentage of KATP current inhibition induced by ZOL was calculated as (I CTRL-I drug)/(I CTRL-I BaCl2) × −100. The concentration response data of ZOL against different KATP channel currents were fitted by an algorithm using the non-linear dynamic fitting routine of Sigma Plot, 10.0.

The subject of data set [3] is KATP channels of calvaria primary bone cells. Kind of data set: KATP currents in cell-attached patches of calvaria primary bone cells. In kind it is cell-based, mice. As to the method:
as §1, §2, §3
Drug actions on the channel currents recorded during instantaneous I/V relationships were investigated by applying a depolarization protocol, in response to voltage pulses from −180 mV to +100 mV (Vm) in 20 mV steps. Currents were expressed as densities (pA/pF) to control for cell size/capacitance differences. All experiments were performed at room temperature (20–22 °C) and sampled at 2 kHz (filter = 1 kHz) using an Axopatch-1D amplifier equipped with a CV-4 headstage (Axon Instruments; Foster City, CA, USA). […] Seal resistance was continuously monitored during the experiment.
The percentage of KATP current inhibition induced by ZOL was calculated as (I CTRL-I drug)/(I CTRL-I BaCl2) × −100. […]

The mark [4] stands for this setting: within the KATP channel blockers.
The mark [5] stands for this setting: Femora primary bone cells, cell-attached patches.

On to `CCOc1cc(CC(=O)N[C@@H](CC(C)C)c2ccccc2N2CCCCC2)ccc1C(=O)O` [repaglinide], for which, in data set [1], the “hypoglycemia, % of the A.D.R. per S.O.C.” value came out at 84.6%. Besides, the “rhabdomyolysis, % of A.D.R.” value in data set [1] (within musculoskeletal and connective tissue disorders) stood at 17.8%. Also, the “Proportional Reporting Ratio (P.R.R.) hypoglycemia” value in data set [1] (setting [4]) is on record as at least 2.
As for `COc1ccc(Cl)cc1C(=O)NCCc1ccc(S(=O)(=O)NC(=O)NC2CCCCC2)cc1` [Glibenclamide, 5-chloro-N-(2-{4-[(cyclohexylcarbamoyl)sulfamoyl]phenyl}ethyl)-2-methoxybenzamide], the “inhibition of KATP currents in C-A patches (in words)” value in data set [2] is on record as “markedly reduced”. Besides, in data set [2] (setting [5]), half-maximal inhibition (IC50) was put at 5.07 nM, the Imax % is reported as −88.32 ± 21 n = 13 cells % and the Slope is recorded as 0.4 ± 0.08. Also, in data set [3], the IC50 was 10.2 nM, the Imax % is −93 ± 14 n = 18 cells % and the Slope is recorded as 0.5 ± 0.03.
For `Cc1ccc(S(=O)(=O)NC(=O)NN2CC3CCCC3C2)cc1` (stereo not drawn) [gliclazide], in data set [1] (setting [4]), the “Proportional Reporting Ratio (P.R.R.) muscular weakness” value is at least 2.
Regarding `CCCCNC(=O)NS(=O)(=O)c1ccc(C)cc1` [tolbutamide], the “inhibition of KATP currents in C-A patches (in words)” value in data set [2] was “less effective inhibitor”.
